Source: patent US6737383B1, “Herbicidal oxadiazolidines” (priority 1999, dated 2004)

How the values were obtained:
[1] = system: deadnettle; experiment: Test E deadnettle; type: in vivo, Lamium amplexicaule; conditions: Postemergence, 0 to 100 scale
Method: (§1) Compounds evaluated in this test were formulated in a non-phytotoxic solvent mixture which included a surfactant and applied to plants that were in the 1- to 4-leaf stage (postemergence application). A mixture of sandy loam soil and greenhouse potting mix in a 60:40 ratio was used for the postemergence test.
(§2) Plantings of these crops and weed species were adjusted to produce plants of appropriate size for the postemergence test. All plant species were grown using normal greenhouse practices. Crop and weed species include annual bluegrass (Poa annua), blackgrass (Alopecurus myosuroides), black nightshade (Solanum nigra), chickweed (Stellaria media), common poppy (Papaver rhoeas), deadnettle (Lamium amplexicaule), downy brome (Bromus tectorum), field violet (Viola arvensis), galium (Galium aparine), green foxtail (Setaria viridis), Italian ryegrass (Lolium multiflorum), jointed goatgrass (Aegilops cylindrica), kochia (Kochia scoparia), lambsquarters (Chenopodium album), littleseed canarygrass (Phalaris minor), rape (Brassica napus), redroot pigweed (Amaranthus retroflexus), Russian thistle (Salsola kali), scentless chamomile (Matricaria inodora), spring barley (Hordeum vulgare), sugar beet (Beta vulgaris), sunflower (Helianthus annuus), ivyleaf speedwell (Veronica hederaefolia), spring wheat (Triticum aestivum), winter wheat (Triticum aestivum), wild buckwheat (Polygonum convolvulus), wild mustard (Sinapis arvensis), wild oat (Avena fatua), windgrass (Apera spica-venti) and winter barley (Hordeum vulgare).
(§3) Treated plants and untreated controls were maintained in a greenhouse for approximately 21 to 28 days, after which all treated plants were compared to untreated controls and visually evaluated. […] A dash response (-) means no test result.

[2] = system: green foxtail; experiment: Test E green foxtail; type: in vivo, Setaria viridis; conditions: Postemergence; for Plant response rating, Green foxtail: 0 to 100 scale
Outline: (§4)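 For postemergence, sowings are timed so plants reach the 1- to 4-leaf stage at spraying. Test compound is applied in a surfactant-containing solvent mixture that is non-phytotoxic. Response is judged by eye against untreated controls after approximately 21 to 28 days.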

[3] = system: kochia; experiment: Test E kochia; type: in vivo, Kochia scoparia; conditions: Postemergence; for Plant response rating, Kochia: 0 to 100 scale
Method: as §1, §2, §3

[4] = system: lambsquarters; experiment: Test E lambsquarters; type: in vivo, Chenopodium album; conditions: Postemergence; for Plant response rating Lambsquarters: 0 to 100 scale
Outline: as §4

[5] = system: scentless chamomile; experiment: Test E scentless chamomile; type: in vivo, Matricaria inodora; conditions: Postemergence; for Plant response rating, Scentless chamo: 0 to 100 scale
Method: as §1, §2, §3

[6] = system: sugar beet; experiment: Test E sugar beet; type: in vivo, Beta vulgaris; conditions: Postemergence; for Plant response rating, Sugar beet: 0 to 100 scale
Method: as §1, §2, §3

[7] = system: spring wheat; experiment: Test E spring wheat; type: in vivo, Triticum aestivum; conditions: Postemergence; for Plant response rating, Spring Wheat: 0 to 100 scale
Method: as §1, §2, §3

[8] = system: wild mustard; experiment: Test E wild mustard; type: in vivo, Sinapis arvensis; conditions: Postemergence; for Plant response rating, Wild mustard: 0 to 100 scale
Method: […] A mixture of sandy loam soil and greenhouse potting mix in a 60:40 ratio was used for the postemergence test.
as §2, §3

[9] = system: wild oat; experiment: Test E wild oat; type: in vivo, Avena fatua; conditions: Postemergence; for Plant response rating, Wild oat: 0 to 100 scale
Outline: as §4

[10] = system: bermuda-grass; experiment: Test D bermudagrass; type: in vivo, Cynodon dactylon; conditions: Postemergence, 0 to 100 scale
[11] = system: common groundsel; experiment: Test D common groundsel; type: in vivo, Senecio vulgaris; conditions: Postemergence, 0 to 100 scale
[12] = system: dallisgrass; experiment: Test D dallisgrass; type: in vivo, Paspalum dilatatum; conditions: Postemergence, 0 to 100 scale
[13] = system: goosegrass; experiment: Test D goosegrass; type: in vivo, Eleusine indica; conditions: Postemergence, 0 to 100 scale
[14] = system: Johnson grass; experiment: Test D Johnson grass; type: in vivo, Sorghum halepense; conditions: Postemergence, 0 to 100 scale
[15] = system: Spanishneedles; experiment: Test D Spanishneedles; type: in vivo, Bidens bipinnata; conditions: Postemergence, 0 to 100 scale; for Spanishneedles plant response rating: 0 no injury, 100 complete control
[16] = system: tall mallow; experiment: Test D tall mallow; type: in vivo, Malva sylvestris; conditions: Postemergence, 0 to 100 scale; for Tall Mallow plant response rating: 0 no injury, 100 complete control
[17] = system: black nightshade; experiment: Test E black nightshade; type: in vivo, Solanum nigra; conditions: Preemergence
[18] = system: galium; experiment: Test E galium; type: in vivo, Galium aparine; conditions: Preemergence
[19] = system: lambsquarters; experiment: Test E lambsquarters; type: in vivo, Chenopodium album; conditions: Preemergence
[20] = system: Russian thistle; experiment: Test E Russian thistle; type: in vivo, Salsola kali; conditions: Preemergence
[21] = system: scentless chamomile; experiment: Test E scentless chamomile; type: in vivo, Matricaria inodora; conditions: Preemergence
[22] = system: sugar beet; experiment: Test E sugar beet; type: in vivo, Beta vulgaris; conditions: Preemergence
[23] = system: windgrass; experiment: Test E windgrass; type: in vivo, Apera spica-venti; conditions: Preemergence
[24] = Rate 500 g/ha, 0 no effect, 100 complete control
[25] = Rate 250 g/ha, 0 to 100 scale where 0 is no effect and 100 is complete control
[26] = Rate 64 g/ha, 0 no injury, 100 complete control
[27] = Rate 125 g/ha, 0 no injury, 100 complete control
[28] = Rate 125 g/ha, 0 to 100 scale (0 no effect, 100 complete control)
[29] = Rate 500 g/ha, 0 to 100 scale where 0 is no effect and 100 is complete control

## C=CCn1c(=O)on(C(=O)N(c2ccc(F)cc2)C(C)C)c1=O [Compound 146]
[1]; Rate 62 g/ha
  Plant response rating, Deadnettle: 50
[1]; Rate 125 g/ha
  Plant response rating, Deadnettle: 10
[1]; [24]
  Plant response rating, Deadnettle: 20
[2]; Rate 62 g/ha
  Plant response rating, Green foxtail: 70
[2]; Rate 125 g/ha
  Plant response rating, Green foxtail: 20
[2]; [24]
  Plant response rating, Green foxtail: 80
[2]; [25]
  Green foxtail plant response rating: 70
[3]; Rate 62 g/ha
  Plant response rating, Kochia: 30
[3]; Rate 125 g/ha
  Plant response rating, Kochia: 10
[3]; [24]
  Plant response rating, Kochia: 40
[3]; [25]
  Kochia plant response rating: 10
[4]; Rate 62 g/ha
  Plant response rating Lambsquarters: 50
[4]; Rate 125 g/ha
  Plant response rating Lambsquarters: 20
[4]; [24]
  Plant response rating Lambsquarters: 50
[4]; [25]
  Lambsquarters plant response rating: 10
[5]; Rate 62 g/ha
  Plant response rating, Scentless chamo: 20
[5]; Rate 125 g/ha
  Plant response rating, Scentless chamo: 10
[5]; [24]
  Plant response rating, Scentless chamo: 10
[5]; [25]
  Scentless chamo plant response rating: 10
[6]; Rate 62 g/ha
  Plant response rating, Sugar beet: 0
[6]; Rate 125 g/ha
  Plant response rating, Sugar beet: 20
[6]; [24]
  Plant response rating, Sugar beet: 40
[6]; [25]
  Sugar beet plant response rating: 30
[7]; Rate 62 g/ha
  Plant response rating, Spring Wheat: 10
[7]; Rate 125 g/ha
  Plant response rating, Spring Wheat: 10
[7]; [24]
  Plant response rating, Spring Wheat: 20
[7]; [25]
  Spring Wheat plant response rating: 10
[8]; Rate 62 g/ha
  Plant response rating, Wild mustard: 60
[8]; Rate 125 g/ha
  Plant response rating, Wild mustard: 50
[8]; [24]
  Plant response rating, Wild mustard: 60
[8]; [25]
  Wild mustard plant response rating: 40
[9]; Rate 62 g/ha
  Plant response rating, Wild oat: 20
[9]; Rate 125 g/ha
  Plant response rating, Wild oat: 5
[9]; [24]
  Plant response rating, Wild oat: 10
[9]; [25]
  Wild oat plant response rating: 0
[10]; [26]
  Plant response rating, Bermudagrass: 0
[10]; [27]
  Plant response rating, Bermudagrass: 0
[10]; Rate 250 g/ha
  Plant response rating, Bermudagrass: 0
[10]; Rate 500 g/ha
  Plant response rating, Bermudagrass: 35
[11]; [26]
  Plant response rating, Com. groundsel: 0
[11]; [27]
  Plant response rating, Com. groundsel: 0
[11]; Rate 250 g/ha
  Plant response rating, Com. groundsel: 0
[11]; Rate 500 g/ha
  Plant response rating, Com. groundsel: 0
[12]; [27]
  Plant response rating, Dallisgrass: 30
[12]; Rate 250 g/ha
  Plant response rating, Dallisgrass: 60
[12]; Rate 500 g/ha
  Plant response rating, Dallisgrass: 80
[13]; [26]
  Plant response rating, Goosegrass: 0
[13]; [27]
  Plant response rating, Goosegrass: 35
[13]; Rate 250 g/ha
  Plant response rating, Goosegrass: 30
[13]; Rate 500 g/ha
  Plant response rating, Goosegrass: 80
[14]; [26]
  Plant response rating Johnsongrass: 20
[14]; [27]
  Plant response rating Johnsongrass: 35
[14]; Rate 250 g/ha
  Plant response rating Johnsongrass: 50
[14]; Rate 500 g/ha
  Plant response rating Johnsongrass: 65
[15]; Rate 64 g/ha
  Spanishneedles plant response rating: 10
[15]; Rate 125 g/ha
  Spanishneedles plant response rating: 10
[15]; Rate 250 g/ha
  Plant response rating, Spanishneedles: 10
[15]; Rate 500 g/ha
  Plant response rating, Spanishneedles: 20
[16]; Rate 64 g/ha
  Tall Mallow plant response rating: 0
[16]; Rate 125 g/ha
  Tall Mallow plant response rating: 0
[16]; Rate 250 g/ha
  Plant response rating, Tall Mallow: 0
[16]; Rate 500 g/ha
  Plant response rating, Tall Mallow: 50
[17]; [28]
  Plant response rating, Blk nightshade: 85
[17]; Rate 250 g/ha
  Blk nightshade plant response rating (0 to 100 scale): 10
[17]; [29]
  Plant response rating, Blk nightshade: 100
[18]; [28]
  Plant response rating, Galium: 40
[18]; Rate 250 g/ha
  Galium plant response rating (0 to 100 scale): 50
[18]; [29]
  Plant response rating, Galium: 95
[19]; [28]
  Plant response rating Lambsquarters: 100
[19]; Rate 250 g/ha
  Lambsquarters plant response rating (0 to 100 scale): 100
[19]; [29]
  Plant response rating Lambsquarters: 100
[20]; [28]
  Plant response rating, Russian thistle: 0
[20]; Rate 250 g/ha
  Russian thistle plant response rating (0 to 100 scale): 0
[20]; [29]
  Plant response rating, Russian thistle: 10
[21]; [28]
  Plant response rating, Scentless chamo: 15
[21]; Rate 250 g/ha
  Scentless chamo plant response rating (0 to 100 scale): 100
[21]; [29]
  Plant response rating, Scentless chamo: 80
[22]; [28]
  Plant response rating, Sugar beet: 60
[22]; Rate 250 g/ha
  Sugar beet plant response rating (0 to 100 scale): 60
[22]; [29]
  Plant response rating, Sugar beet: 80
[23]; [28]
  Plant response rating, Windgrass: 100
[23]; Rate 250 g/ha
  Windgrass plant response rating (0 to 100 scale): 100
[23]; [29]
  Plant response rating, Windgrass: 100

## CC(C)N(C(=O)n1oc(=O)n(C2CC2)c1=O)c1ccc(F)cc1F [Compound 299]
[10]; [26]
  Plant response rating, Bermudagrass: 90
[10]; [27]
  Plant response rating, Bermudagrass: 100
[10]; Rate 250 g/ha
  Plant response rating, Bermudagrass: 100
[10]; Rate 500 g/ha
  Plant response rating, Bermudagrass: 100
[11]; [26]
  Plant response rating, Com. groundsel: 100
[11]; [27]
  Plant response rating, Com. groundsel: 100
[11]; Rate 250 g/ha
  Plant response rating, Com. groundsel: 100
[11]; Rate 500 g/ha
  Plant response rating, Com. groundsel: 100
[12]; [26]
  Plant response rating, Dallisgrass: 100
[12]; [27]
  Plant response rating, Dallisgrass: 100
[12]; Rate 250 g/ha
  Plant response rating, Dallisgrass: 100
[12]; Rate 500 g/ha
  Plant response rating, Dallisgrass: 100
[13]; [26]
  Plant response rating, Goosegrass: 90
[13]; [27]
  Plant response rating, Goosegrass: 100
[13]; Rate 250 g/ha
  Plant response rating, Goosegrass: 100
[13]; Rate 500 g/ha
  Plant response rating, Goosegrass: 100
[14]; [26]
  Plant response rating Johnsongrass: 0
[14]; [27]
  Plant response rating Johnsongrass: 60
[14]; Rate 250 g/ha
  Plant response rating Johnsongrass: 100
[14]; Rate 500 g/ha
  Plant response rating Johnsongrass: 100
[15]; Rate 64 g/ha
  Spanishneedles plant response rating: 0
[15]; Rate 125 g/ha
  Spanishneedles plant response rating: 0
[15]; Rate 250 g/ha
  Plant response rating, Spanishneedles: 20
[15]; Rate 500 g/ha
  Plant response rating, Spanishneedles: 100
[16]; Rate 64 g/ha
  Tall Mallow plant response rating: 30
[16]; Rate 125 g/ha
  Tall Mallow plant response rating: 90
[16]; Rate 250 g/ha
  Plant response rating, Tall Mallow: 70
[16]; Rate 500 g/ha
  Plant response rating, Tall Mallow: 100
